Values of other authors, collected in publication PMC12060149 (RSC Advances, 2025).

Legend:
ACE2 = ACE2 (Homo sapiens, UniProt Q9BYF1)
breast cancer tumor = details: mice

Chain of ACE2 (Q9BYF1 18-805): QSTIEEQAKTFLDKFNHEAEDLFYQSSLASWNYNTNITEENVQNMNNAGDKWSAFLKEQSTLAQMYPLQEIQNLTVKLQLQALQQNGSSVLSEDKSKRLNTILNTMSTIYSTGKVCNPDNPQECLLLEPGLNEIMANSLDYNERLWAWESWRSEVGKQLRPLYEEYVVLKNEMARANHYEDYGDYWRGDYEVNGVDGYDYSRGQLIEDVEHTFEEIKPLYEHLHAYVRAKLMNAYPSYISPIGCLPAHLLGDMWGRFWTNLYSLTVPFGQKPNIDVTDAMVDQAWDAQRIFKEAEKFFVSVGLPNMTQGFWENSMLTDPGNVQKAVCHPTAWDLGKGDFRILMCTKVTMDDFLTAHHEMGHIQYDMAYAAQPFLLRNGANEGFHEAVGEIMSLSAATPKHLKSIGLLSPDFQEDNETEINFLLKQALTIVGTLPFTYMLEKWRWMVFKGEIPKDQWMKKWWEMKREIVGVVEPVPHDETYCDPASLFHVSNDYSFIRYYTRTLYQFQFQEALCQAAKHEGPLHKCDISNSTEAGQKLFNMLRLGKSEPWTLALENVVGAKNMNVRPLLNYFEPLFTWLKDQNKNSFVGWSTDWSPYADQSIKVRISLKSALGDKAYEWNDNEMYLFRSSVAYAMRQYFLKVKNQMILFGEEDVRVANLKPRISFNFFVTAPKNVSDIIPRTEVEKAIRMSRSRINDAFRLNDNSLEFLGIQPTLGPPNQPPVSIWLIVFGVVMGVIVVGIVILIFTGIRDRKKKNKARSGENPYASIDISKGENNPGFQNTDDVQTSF

NCCC(=O)N[C@@H](Cc1cnc[nH]1)C(=O)O [carnosine, Carnosine]
concentration range of mild ACE2 inhibition (ACE2): 100 to 300 mM
breast cancer tumor size (breast cancer tumor): reduces the breast cancer tumor size
MCF-7 proliferation (MCF-7; carnosine in the 100–300 mM range): increased but non-significantly
IC50 (MCF-7; read-out: IC50 of antiproliferative effect, two other research groups): ~68 mM
